Laboratory results published in patent US5229419A, “Chemotherapeutically active acetogenins” (Purdue Research Foundation, priority 1992, dated 1993).
≈ marks a conversion by molar mass, not a printed value. Read-outs that look alike come from different tables or passages of the source.

Tests used:
[1] = test system: 9KB (human nasopharyngeal carcinoma); details: cited from earlier work
two spotted spider mites = details: cited from earlier work
mosquito larvae = details: cited from earlier work
Mexican bean beetle = details: cited from earlier work
mice = details: cited from earlier work
stripped cucumber beetle = details: cited from earlier work
3PS lymphocytic leukemia = details: 0.0125 mg/kg; cited from earlier work
[2] = test system: 9PS (murine lymphocytic leukemia); details: cited from earlier work
melon aphid = details: cited from earlier work
blow fly larvae = details: cited from earlier work
[3] = test system: free-living nematode, Caenorabditis elegans; details: cited from earlier work
[4] = test system: 9KB (human nasopharyngeal carcinoma); assay: 9KB cytotoxicity; type: cell-based
Procedure: (§1) Occasional checks in the potato disc (PD) assay assured us that antitumor activity was present [Ferrigni et al., J. Nat. Prod., 45; 679-686 (1982)]. Cytotoxicity tests were performed at the Purdue Cell Culture Laboratory, Purdue Cancer Center, using standard protocols for 9KB (human nasopharyngeal carcinoma) and 9PS (a chemically-induced murine lymphocytic leukemia) [Suffness et al., Methods In Cancer Research. Vol. 16: 73 (1979), V. T. DeVita, Jr. and H. Busch eds., Academic Press, New York], 9ASK (astrocytoma reversal) [Lgarashi et al., Cell Struct. and Funct., 3: 107 (1978)], A-549 (human lung carcinoma) [Giard et al., J. Nat. Cancer Inst., 51: 1417-1423 (1973)], and HT-29 (human colon adenocarcinoma) [Fogh J. (ed.), Human Tumor Cells, In Vitro, Plenum Press, New York: 115-159 (1975)].
(§2) Anticancer activity is a potential use even for the crude extract. The bioassay results for the lethality of brine shrimp (BST), the inhibition of crown gall tumors on potato discs (PD), the reversal in morphology of db-cAMP induced AC glioma cells from that of mature, differentiated astrocytes to that of immature AC glioma cells (mouse brain cells) (9ASK), the dose that inhibits cell growth to one-half that of untreated poorly differentiated human epidermic carcinoma (9KB), the dose that inhibits cell growth to one-half that of a methylcholanthrene-induced lymphoid neoplasm in a DBA/2 mouse (9PS), and the percent displacement in a protein kinase C test for initial extract fractions are shown in Table 1. Obviously, the bioactivity is concentrated in F005.

[5] = test system: HT-29 (human colon adenocarcinoma); assay: HT-29 cytotoxicity; type: cell-based; details: HT-29, read-out: HT29 ED50
Procedure: as §1
(§3) These two compounds are the most bioactive acetogenins reported to this date. But the safety range for treatments might be larger. In this table, two cytotoxicity tests against human tumor cell lines such as the human lung carcinoma (A-549) [Giard et al., J. Nat. Cancer Inst. 51: 1417-1423 (1973)] and the human colon adenocarcinoma (HT-29) [Fogh, J. (ed.) Human Tumor Cells, In Vitro, pp. 115-159, Plenum Press, New York (1975)] have been performed. […] The mode of action for the acetogenins is still unknown, but it is postulated to involve cell membranes.

[6] = test system: A-549 (human lung carcinoma); assay: A-549 cytotoxicity; type: cell-based; details: A549, read-out: A549 ED50
Procedure: as §1, §3

[7] = test system: brine shrimp (Artemia salina Leach); assay: whole plant or invertebrate; type: in vivo; details: 24 hrs, read-out: BST LC50
Procedure: The extracts, fractions, and isolated compounds were routinely evaluated for lethality to brine shrimp larvae (BST). The LC50 of brine shrimp (Artemia salina Leach) was determined by substantially the same method described by Meyer et al. [Planta Med., 45: 31-34 (1982)]. The test sample was dissolved in solvent and added to 2-dram vials in an amount to provide 1000, 100, 10, 1, etc. p.p.m. of material in the final brine preparation, assuming complete miscibility in the brine. The vials were dried in vacuo, and artificial sea water, prepared from a commercial salt mixture, was added. Ten brine shrimp larva (nauplii), 48-72 hrs. old, were introduced to the vial, and the volume was made up to 5 ml. with the sea water. After 24 hrs., the percent mortality was computed. Subsequently, LC50 values and 95% confidence limits were calculated by a Finney probit analysis to permit comparison of potencies of extracts and fractions.
as §2

[8] = test system: 9PS (murine lymphocytic leukemia); assay: 9PS cytotoxicity; type: cell-based; details: Mus musculus; read-out: 9PS ED50
Procedure: as §1, §2

human tumor cell lines = assay: selectivity of cytotoxicity between human tumor cell lines A-549 and HT-29; type: cell-based; details: compared with bullatacin; A-549 vs HT-29
Excerpt: as §3

indicator organisms = assay: pesticidal bioassays, overall; details: in vivo
Procedure: Pesticidal bioassays were conducted at Eli Lilly Laboratories (Greenfield, Ind.) following standard procedures with eight indicator organisms: mosquito larvae (ML) Aedes aegypti (in the media), blowfly larvae (BFL) (1% in the diet), corn root worm (CRW) Diabrotics undecimcuntata howardii (in soil), two-spotted spider mite (2SSM) Tetranychus urticae (on foliage), southern army worm (SAW) Spodoptera eridania (on foliage), melon aphid (MA) (5000 ppm on foliage), cotton aphid (CA) Aphis gossypii, (on foliage) and Haemonchus contortus (HC) (a nematode, 0.1% in the media).
The compounds can be formulated at concentrations of about 1 to about 200 ppm in conventional liquid or solid forms for application to pest infected areas.

[9] = test system: P-388 (PS) lymphocytic leukemia; details: cited from earlier work
[10] = test system: P-388 lymphocytic leukemia; details: cited from earlier work
PS = details: cited from earlier work

Question: Which “9KB ED50” value [1] does the source give for CCCCCCCCCCC(O)C1CCC(C2CCC(C(O)CCCCCCCCCCC(O)CC3=CC(C)OC3=O)O2)O1 (stereo not shown) [Asimicin] here?
Answer: < 10^-5 μg/ml

Question: And the pesticidal activity (two spotted spider mites)?
Answer: Promising pesticidal activity

Question: What about the pesticidal activity (mosquito larvae) of the same compound?
Answer: Promising pesticidal activity

Question: What about the pesticidal activity (Mexican bean beetle) of the same compound?
Answer: Promising pesticidal activity

Question: What about the “toxic to mice at” value (mice) of the same compound?
Answer: 6.25 mg/kg

Question: And the pesticidal activity (stripped cucumber beetle)?
Answer: Promising pesticidal activity

Question: And the “% T/C” value (3PS lymphocytic leukemia)?
Answer: 124 % T/C

Question: What about the “9PS ED50” value [2] of the same compound?
Answer: < 10^-7 μg/ml

Question: What about the pesticidal activity (melon aphid) of the same compound?
Answer: Promising pesticidal activity

Question: And the pesticidal activity (blow fly larvae)?
Answer: Promising pesticidal activity

Question: And the pesticidal activity [3]?
Answer: Promising pesticidal activity

Question: With CCCCCCCCCC[C@H](OC(C)=O)[C@H]1CC[C@H]([C@H]2CC[C@H]([C@@H](CCCCCCCCCC[C@H](CC3=C[C@H](C)OC3=O)OC(C)=O)OC(C)=O)O2)O1 [Bullatacin triacetate] as the compound, how does the “9KB ED50” value [4] read?
Answer: 6.85e-07 µg/mL

Question: And the IC50 [5]?
Answer: > 100 ng/mL

Question: And the IC50 [6]?
Answer: 2 ng/mL

Question: And the LC50 [7]?
Answer: 5.7 µg/mL

Question: And the IC50 [8]?
Answer: 0.00389 µg/mL

Question: Which results are given for CCCCCCCCCC[C@H](OC(C)=O)[C@H]1CC[C@H]([C@H]2CC[C@H]([C@@H](CCCCCCCCCC[C@@H]3C[C@@H](CC(C)=O)C(=O)O3)OC(C)=O)O2)O1 [Bullatacinone diacetate]?
Answer: 9KB ED50 [4]: 5000 µg/mL; IC50 [5]: 100 ng/mL; IC50 [6]: 28 ng/mL; LC50 [7]: > 10 µg/mL; IC50 [8]: 0.0422 µg/mL

Question: Which “9KB ED50” value [4] does the source give for CCCCCCCCCC[C@H](O)[C@H]1CC[C@H]([C@H]2CC[C@H]([C@H](O)CCCCCCCCCCC3CC(CC(C)=O)C(=O)O3)O2)O1 (stereo partly shown) [Bullatacinone] here?
Answer: < 10^-12 mcg/ml

Question: And the IC50 [6]?
Answer: 1 ng/mL (≈ 1.61 nM)

Question: And the LC50 [7]?
Answer: 0.003 µg/mL (≈ 4.82 nM)

Question: What about the selectivity of cytotoxicities (human tumor cell lines) of the same compound?
Answer: more selective cytotoxicities than bullatacin

Question: And the “pesticidal activity” value (indicator organisms)?
Answer: lack of pesticidal activity

Question: And the IC50 [8]?
Answer: 0.00423 µg/mL (≈ 6.79 nM)

Question: Which IC50 [5] does the source give for CCCCCCCCCC[C@H](O)[C@H]1CC[C@H]([C@H]2CC[C@H]([C@H](O)CCCCCCCCCC[C@@H](O)CC3C[C@H](C)OC3=O)O2)O1 (stereo partly shown) [Dihydro-bullatacin] here?
Answer: 0.0333 ng/mL (≈ 0.0533 nM)

Question: And the IC50 [6]?
Answer: < 0.001 ng/mL

Question: What about the LC50 [7] of the same compound?
Answer: 0.0145 µg/mL (≈ 23.2 nM)

Question: Which “activity in vivo against P-388 lymphocytic leukemia in mice” value [9] does the source give for CCCCCCCCCC[C@H](OC(C)=O)[C@H]1CC[C@H]([C@H]2CC[C@H]([C@H](O)CCCCCCCCCCCCC3=C[C@H](C)OC3=O)O2)O1 [Uvaricin] here?
Answer: demonstrated activity in vivo

Question: For CCCCCCC(O)CCCC(O)C1CCC(C2CCC(C(O)CCCCCCCCCCCCC3=CC(C)OC3=O)O2)O1 (stereo not shown) [isorollinicin], which “in vitro cytotoxicity against P-388” value [10] is on record?
Answer: in vitro cytotoxicity

Question: Which life extension (PS) does the source give for CCCCCCCCCCC(O)C1CCC(C2CCC(C(O)CCCCCCCCCCC(O)CC3=CC(C)OC3=O)O2)O1 (stereo not shown) [rolliniastatin] here?
Answer: 28%

Question: With CCCCCCCCC[C@@H](O)[C@@H](O)[C@@H]1CC[C@@H]([C@@H]2CC[C@@H]([C@@H](O)CCCCCCCCCCCCC3=CC(C)OC3=O)O2)O1 (stereo partly shown) [rollinicin] as the compound, how does the “in vitro cytotoxicity against P-388” value [10] read?
Answer: in vitro cytotoxicity
